Data on 4 compounds can be found in patent US20160374944A1, “COMPOSITIONS AND METHODS FOR TREATING AND PREVENTING CANCER BY TARGETING AND INHIBITING CANCER STEM CELLS” (priority 2011, published 2016).

In test [1] the test system is Pancreatic CSCs. Description: spheroid formation and cell viability in spheroids (trypan blue). In kind it is cell-based, human. The conditions noted are these: for cell viability in spheroids: EGCG 0-60 μM with or without quercetin 20 μM. The procedure:
(A) Pancreatic CSCs were grown in six-well ultralow attachment plates (Corning Inc., Corning, N.Y.) at a density of 1,000 cells/ml in DMEM supplemented with 1% N2 Supplement (Invitrogen), 2% B27 Supplement (Invitrogen), 20 ng/ml human platelet growth factor (Sigma-Aldrich), 100 ng/ml EGF (Invitrogen) and 1% antibiotic-antimycotic (Invitrogen) at 37° C. in a humidified atmosphere of 95% air and 5% CO2 and treated with rottlerin (0-2 μM) for 7 days to obtain primary spheroids. At the end of incubation period, spheroids were collected, reseeded and treated with rottlerin for another week to obtain secondary spheroids. (B) Cell viability in spheroids was measured by trypan blue assay at the end of 7 and 14 days from the above experiment.
(§1) (A) Pancreatic CSCs were seeded in suspension and treated with EGCG (0-60 μM) for 7 days. Pictures of spheroids formed in suspension were taken by a microscope. (B) Pancreatic CSCs were seeded in suspension and treated with EGCG (0-60 μM) for 7 days. At the end of incubation period, spheroids were collected, and dissociated with Accutase (Innovative Cell Technologies, Inc.). For secondary spheroids, cells were reseeded and treated with EGCG (0-60 μM) for 7 days. Cell viability was measured by trypan blue assay. […] Pancreatic CSCs were seeded in soft agar and treated with various doses of EGCG and incubated at […] for 21 days. At the end of incubation period, colonies were counted.
(A) Pancreatic CSCs were treated with EGCG (0-60 μM) for 36 h. At the end of incubation period, cells were harvested and the expression of Nanog, Sox-2, c-Myc and Oct-4 was measured by the q-RT-PCR. […] Pancreatic CSCs were transduced with either scrambled shRNA or Nanog shRNA expressing lentiviral vector (pLKO.1), and cell lysates were collected and western blot analysis was performed using anti-Nanog antibody (data not shown). CSC/scrambled and CSC/Nanog shRNA were seeded as described above and treated with EGCG (0-60 μM). After 7 days, spheroids were collected and cell suspensions were prepared and viable cells were counted by trypan blue assay.
(§2) (A) Effects of EGCG and quercetin on spheroid and colony formation. […] CSCs were seeded in suspension and treated with EGCG (0-60 μM) with or without quercetin (20 μM) for 7 days. At the end of incubation period, all the spheroids were collected and resuspended. Cell viability was measured by trypan blue assay. […] Pancreatic CSCs were seeded in soft agar and treated with various doses of EGCG (0-60 μM) with or without quercetin (20 μM) and incubated at […] for 21 days. At the end of incubation period, colonies were counted. […] (B) Effects of EGCG and quercetin on invasion and migration. Upper panel, Matrigel invasion assay. CSCs were plated onto the Matrigel-coated membrane in the top chamber of the transwell and treated with EGCG (0-60 μM) with or without quercetin (20 μM) for 48 hrs. Cells invaded to the lower chambered were fixed with methanol, stained with crystal violet and counted. […] Lower panel, Transwell migration assay. Pancreatic CSCs were plated in the top chamber of the transwell and treated with EGCG (0-60 μM) with or without quercetin (20 μM) for 48 hrs. Cells migrated to the lower chambered were fixed with methanol, stained with crystal violet and counted. […] CSCs were seeded in suspension and treated with EGCG (0-60 μM) with or without quercetin (20 μM) for 7 days. At the end of incubation period, all the spheroids were collected.

The test system of test [2] is Pancreatic CSCs. The test is described as follows: colony formation in soft agar. In kind it is cell-based, human. Conditions: 21 days. Here is the method: as §1, §2
At the end of incubation period, all the spheroids were collected and resuspended. Cell viability was measured by trypan blue assay. […] At the end of incubation period, colonies were counted.

For a further test, the system named is Brain CSCs. Description: cell viability, trypan blue, Vi-CELL analyzer. In kind it is cell-based. Conditions: 48 h. Here is the method: Brain CSCs were treated with resveratrol (0-20 μM), curcumin (0-20 μM), honokiol (0-20 μM) and diallyl trisulphide (0-10 μM) for 3 days, and cell viability was measured by staining with trypan blue using Vi-CELL analyzer (Beckman Counter).
Brain CSCs were treated with sulforaphane (0-20 μM), rottlerin (0-1 μM), EGCG (0-40 μM) and embelin (0-5 μM) for 48 h, and cell viability was measured by staining with trypan blue using Vi-CELL analyzer (Beckman Counter).
Brain CSCs were treated with resveratrol (0-20 μM), curcumin (0-20 μM) honokiol (0-20 μM), and diallyl trisulphide (0-10 μM) for 3 days and cell viability was measured by staining with trypan blue using Vi-CELL analyzer. The results of those studies are illustrated in FIG. 23.
Brain CSCs were treated with sulforaphane (0-20 μM), rottlerin (0-1 μM), EGCG (0-40 μM), and embelin (0-5 μM) for 48 hours and cell viability was measured by staining with trypan blue using Vi-CELL analyzer. The results of those studies are illustrated in FIG. 24.

For another test, the system named is Prostate CSCs. Description: cell viability, trypan blue, Vi-CELL analyzer. The class given is cell-based, human. Conditions: 3 days. The procedure:
Prostate CSCs were treated with resveratrol (0-20 μM), curcumin (0-20 μM), honokiol (0-20 μM) and diallyl trisulphide (0-10 μM) for 3 days, and cell viability was measured by staining with trypan blue using Vi-CELL analyzer (Beckman Counter).
Prostate CSCs were treated with sulforaphane (0-20 μM), rottlerin (0-5 μM), EGCG (0-40 μM) and embelin (0-1 μM) for 3 days, and cell viability was measured by staining with trypan blue using Vi-CELL analyzer (Beckman Counter).
Prostate CSCs were treated with resveratrol (0-20 μM), curcumin (0-20 μM), honokiol (0-20 μM), and diallyl trisulphide (0-10 μM) for 3 days and cell viability was measured by staining with trypan blue using Vi-CELL analyzer. The results of those studies are illustrated in FIG. 25.
Prostate CSCs were treated with sulforaphane (0-20 μM), rottlerin (0-5 μM), EGCG (0-40 μM), and embelin (0-1 μM) for 3 days and cell viability was measured by staining with trypan blue using Vi-CELL analyzer. The results of those studies are illustrated in FIG. 26.

Setting [3] is: EGCG 0-60 μM with or without quercetin 20 μM.

Molecules are shown by their SMILES.

As for `O=C(O[C@@H]1Cc2c(O)cc(O)cc2O[C@@H]1c1cc(O)c(O)c(O)c1)c1cc(O)c(O)c(O)c1` [EGCG, epigallocatechin gallate], the “CSC viability in spheroids” value in the test on Pancreatic CSCs [1] (CSCs transduced with Nanog shRNA, EGCG 0-60 μM, 7 days) is listed as “further enhanced the antiproliferative effects”; in the test with Pancreatic CSCs [1] (CSCs transduced with scrambled shRNA, EGCG 0-60 μM, 7 days), “inhibited CSC's viability in spheroids transduced with Nanog-scrambled shRNA in a dose-dependent manner”. Further, the “cell viability in spheroids” value in the test with Pancreatic CSCs [1] (7 days) was “inhibited cell viability in spheroids, colony formation, migration and invasion by CSCs in a dose-dependent manner”. The “growth (size) of spheroids in suspension” value with Pancreatic CSCs [1] (EGCG 0-60 μM, 7 days) is on record as “inhibited the growth (size) of spheroids in suspension in a dose dependent manner”. In the test on Pancreatic CSCs [1] (EGCG 0-60 μM, 7 days each, trypan blue), the “CSC viability in primary and secondary spheroids” value is “inhibited CSC's viability in primary and secondary spheroids in a dose-dependent manner”. The colony formation result in the test with Pancreatic CSCs [2] (setting [3]) was “inhibited cell viability in spheroids, colony formation, migration and invasion by CSCs in a dose-dependent manner”. The growth of colonies result in the test on Pancreatic CSCs [2] (EGCG) was “inhibited the growth of colonies in a dose-dependent manner”. For the same compound, the cell viability result with Brain CSCs and in the test with Prostate CSCs was “inhibit cell viability” throughout.
For the compound `O=c1c(O)c(-c2ccc(O)c(O)c2)oc2cc(O)cc(O)c12` [quercetin], the “cell viability in spheroids” value with Pancreatic CSCs [1] (7 days) is reported as “effective alone”. In addition, the colony formation entry in the test with Pancreatic CSCs [2] (setting [3]) and in the test with Pancreatic CSCs [2] (SFN with or without quercetin) was “effective alone” in each case.
On to `CC(=O)c1c(O)c(C)c(O)c(Cc2c(O)c3c(c(C(=O)/C=C/c4ccccc4)c2O)OC(C)(C)C=C3)c1O` [rottlerin], for which the “size of primary and secondary spheroids in suspension” value in the test with Pancreatic CSCs [1] (rottlerin 0-2 μM, 7 and 14 days) is recorded as “inhibited the size”. In addition, the “cell viability of spheroids” value with Pancreatic CSCs [1] (rottlerin 0-2 μM, 7 and 14 days, trypan blue) is listed as “inhibited”. In addition, the cell viability result in the test on Brain CSCs and in the test on Prostate CSCs was “inhibit cell viability” in each case.
As for `C[S+]([O-])CCCCN=C=S` (stereo not shown) [sulforaphane], the colony formation entry with Pancreatic CSCs [2] (SFN with or without quercetin) was “inhibited the cell viability and colony formation of pancreatic CSCs in a dose-dependent manner”. The cell viability entry in the test on Brain CSCs and in the test on Prostate CSCs was “inhibit cell viability” in each case.
